Laboratory results as given in PubChem BioAssay (NCI).
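Five concentrations, 48 hours, 96-well plates. GI50 is the concentration that inhibits growth by half. TGI: concentration producing complete growth inhibition.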

Tests used:
Experiment in all cases: inhibition of tumour cell growth, NCI panel, 48 h
PC-3 prostate = system: PC-3 prostate
CCRF-CEM leukemia = system: CCRF-CEM leukemia
BT-549 breast = system: BT-549 breast
KM12 colon = system: KM12 colon
A498 renal = system: A498 renal
A549 NSCLC = system: A549 NSCLC
HS 578T breast = system: HS 578T breast
HOP-62 NSCLC = system: HOP-62 NSCLC
MALME-3M melanoma = system: MALME-3M melanoma
SF-539 CNS = system: SF-539 CNS
NCI-H23 lung = system: NCI-H23 lung
ACHN renal = system: ACHN renal
OVCAR-4 ovarian = system: OVCAR-4 ovarian
HCT-15 colon = system: HCT-15 colon
NCI/ADR-RES ovarian = system: NCI/ADR-RES ovarian
MDA-MB-231 breast = system: MDA-MB-231 breast
HCT-116 colon = system: HCT-116 colon
UACC-62 melanoma = system: UACC-62 melanoma
OVCAR-5 ovarian = system: OVCAR-5 ovarian
OVCAR-8 ovarian = system: OVCAR-8 ovarian
SW-620 colon = system: SW-620 colon
SK-MEL-5 melanoma = system: SK-MEL-5 melanoma
SK-MEL-28 melanoma = system: SK-MEL-28 melanoma
HL-60(TB) leukemia = system: HL-60(TB) leukemia
LOX IMVI melanoma = system: LOX IMVI melanoma
MOLT-4 leukemia = system: MOLT-4 leukemia
786-0 renal = system: 786-0 renal
UO-31 renal = system: UO-31 renal
K-562 leukemia = system: K-562 leukemia
SN12C renal = system: SN12C renal
SF-295 CNS = system: SF-295 CNS
TK-10 renal = system: TK-10 renal
HCC-2998 colon = system: HCC-2998 colon
SNB-19 CNS = system: SNB-19 CNS
NCI-H522 lung = system: NCI-H522 lung
SNB-75 CNS = system: SNB-75 CNS
IGROV1 ovarian = system: IGROV1 ovarian
DU-145 prostate = system: DU-145 prostate
MCF7 breast = system: MCF7 breast
NCI-H226 lung = system: NCI-H226 lung
SR leukemia = system: SR leukemia
M14 melanoma = system: M14 melanoma
NCI-H460 lung = system: NCI-H460 lung
MDA-MB-435 = system: MDA-MB-435
UACC-257 melanoma = system: UACC-257 melanoma
HOP-92 NSCLC = system: HOP-92 NSCLC
U251 CNS = system: U251 CNS
T-47D breast = system: T-47D breast
RPMI-8226 leukemia = system: RPMI-8226 leukemia
SK-OV-3 ovarian = system: SK-OV-3 ovarian
OVCAR-3 ovarian = system: OVCAR-3 ovarian
SF-268 CNS = system: SF-268 CNS
EKVX NSCLC = system: EKVX NSCLC
COLO 205 colon = system: COLO 205 colon
CAKI-1 renal = system: CAKI-1 renal
SK-MEL-2 melanoma = system: SK-MEL-2 melanoma
RXF 393 renal = system: RXF 393 renal
HT29 colon = system: HT29 colon

## Nc1ncnc2n[nH]c(Nc3ccc(F)cc3)c12
PC-3 prostate
  GI50: 20.8 µM
  TGI: > 100 µM
CCRF-CEM leukemia
  GI50: 18.4 µM
  TGI: 72.4 µM
BT-549 breast
  GI50: 56.7 µM
  TGI: > 100 µM
KM12 colon
  GI50: 20.3 µM
  TGI: 86.3 µM
A498 renal
  GI50: 8.33 µM
  TGI: 92.8 µM
A549 NSCLC
  GI50: 39.2 µM
  TGI: > 100 µM
HS 578T breast
  GI50: 20.6 µM
  TGI: > 100 µM
HOP-62 NSCLC
  GI50: 64.8 µM
  TGI: > 100 µM
MALME-3M melanoma
  GI50: 30.6 µM
  TGI: > 100 µM
SF-539 CNS
  GI50: 23.6 µM
  TGI: > 100 µM
NCI-H23 lung
  GI50: 67.8 µM
  TGI: > 100 µM
ACHN renal
  GI50: 5.46 µM
  TGI: > 100 µM
OVCAR-4 ovarian
  GI50: 19 µM
  TGI: 75.2 µM
HCT-15 colon
  GI50: 8.6 µM
  TGI: > 100 µM
NCI/ADR-RES ovarian
  GI50: 65.3 µM
  TGI: > 100 µM
MDA-MB-231 breast
  GI50: 21.5 µM
  TGI: 81.2 µM
HCT-116 colon
  GI50: 12.3 µM
  TGI: 31.9 µM
UACC-62 melanoma
  GI50: 20.8 µM
  TGI: > 100 µM
OVCAR-5 ovarian
  GI50: 60 µM
  TGI: > 100 µM
OVCAR-8 ovarian
  GI50: 22.5 µM
  TGI: > 100 µM
SW-620 colon
  GI50: 18.2 µM
  TGI: > 100 µM
SK-MEL-5 melanoma
  GI50: 19.6 µM
  TGI: > 100 µM
SK-MEL-28 melanoma
  GI50: 24.1 µM
  TGI: 88.4 µM
HL-60(TB) leukemia
  GI50: 38.5 µM
  TGI: > 100 µM
LOX IMVI melanoma
  GI50: 10.1 µM
  TGI: 34 µM
MOLT-4 leukemia
  GI50: 31.7 µM
  TGI: > 100 µM
786-0 renal
  GI50: 19.3 µM
  TGI: > 100 µM
UO-31 renal
  GI50: 5.93 µM
  TGI: > 100 µM
K-562 leukemia
  GI50: 15.6 µM
  TGI: > 100 µM
SN12C renal
  GI50: 35.6 µM
  TGI: > 100 µM
SF-295 CNS
  GI50: > 100 µM
  TGI: > 100 µM
TK-10 renal
  GI50: 25.4 µM
  TGI: > 100 µM
HCC-2998 colon
  GI50: 51.9 µM
  TGI: > 100 µM
SNB-19 CNS
  GI50: 61.7 µM
  TGI: > 100 µM
NCI-H522 lung
  GI50: 29.8 µM
  TGI: > 100 µM
SNB-75 CNS
  GI50: 31.7 µM
  TGI: > 100 µM
IGROV1 ovarian
  GI50: 4.73 µM
  TGI: 32.1 µM
DU-145 prostate
  GI50: 9.33 µM
  TGI: 42.1 µM
MCF7 breast
  GI50: 27.7 µM
  TGI: 89.3 µM
NCI-H226 lung
  GI50: 51 µM
  TGI: > 100 µM
SR leukemia
  GI50: 13.3 µM
  TGI: 94.6 µM
M14 melanoma
  GI50: 13.4 µM
  TGI: > 100 µM
NCI-H460 lung
  GI50: 16.3 µM
  TGI: > 100 µM
MDA-MB-435
  GI50: 19.7 µM
  TGI: 49.6 µM
UACC-257 melanoma
  GI50: 67.7 µM
  TGI: > 100 µM
HOP-92 NSCLC
  GI50: 12 µM
  TGI: 87.4 µM
U251 CNS
  GI50: 28.6 µM
  TGI: > 100 µM
T-47D breast
  GI50: 21.1 µM
  TGI: > 100 µM
RPMI-8226 leukemia
  GI50: 15.1 µM
  TGI: > 100 µM
SK-OV-3 ovarian
  GI50: 6.93 µM
  TGI: > 100 µM
OVCAR-3 ovarian
  GI50: 30.8 µM
  TGI: > 100 µM
SF-268 CNS
  GI50: 28.7 µM
  TGI: > 100 µM
EKVX NSCLC
  GI50: 33.6 µM
  TGI: > 100 µM
COLO 205 colon
  GI50: 17.3 µM
  TGI: 66.1 µM
CAKI-1 renal
  GI50: 4.05 µM
  TGI: > 100 µM
SK-MEL-2 melanoma
  GI50: 14 µM
  TGI: > 100 µM
RXF 393 renal
  GI50: 13.6 µM
  TGI: > 100 µM
HT29 colon
  GI50: 25.3 µM
  TGI: > 100 µM
